How the values were obtained:
[1] = 101 kPa, Liquid, Vibrating tube method
[2] = refractive index (Na D-line) (dimensionless); details: 101.33 kPa, Liquid, Standard Abbe refractometry
[3] = wn = mass fraction of the nth substance listed; details: 101 kPa, Liquid, Vibrating tube method
[4] = refractive index (Na D-line) (dimensionless); wn = mass fraction of the nth substance listed; details: 101 kPa, Liquid, Standard Abbe refractometry

CCCCn1cc[n+](C)c1.F[B-](F)(F)F [1-butyl-3-methylimidazolium tetrafluoroborate]
Details | mass density, [1] [kg/m3] | refractive index, [2]
298.15 K | 1202.87 | 1.422
323.15 K | 1185.11 | 1.4155

CCCCn1cc[n+](C)c1.F[B-](F)(F)F [1-butyl-3-methylimidazolium tetrafluoroborate] + CC(C)O
323.15 K
Details | mass density, [3] [kg/m3] | refractive index, [4]
w2 = 0 | 1185.11 | 1.4155
w2 = 0.0089 | 1180.38 | 1.4152
w2 = 0.0287 | 1170.07 | 1.4143
w2 = 0.0624 | 1147.36 | 1.4122
w2 = 0.1053 | 1122.14 | 1.4106
w2 = 0.1649 | 1091.32 | 1.4077
w2 = 0.2183 | 1061.8 | 1.4071
w2 = 0.2719 | 1031.58 | 1.406
w2 = 0.324 | 1012 | 1.403
w2 = 0.4108 | 973.34 | 1.3989
w2 = 0.5167 | 927.14 | 1.3948
w2 = 0.5965 | 901.85 | 1.391
w2 = 0.6194 | 888.84 | 1.3904
w2 = 0.7697 | 835.46 | 1.3817
w2 = 0.8372 | 809.26 | 1.3749
w2 = 0.9344 | 778.75 | 1.3668

CCCCn1cc[n+](C)c1.F[B-](F)(F)F [1-butyl-3-methylimidazolium tetrafluoroborate] + O
298.15 K
Details | mass density, [3] [kg/m3] | refractive index, [4]
w2 = 0 | 1202.87 | 1.422
w2 = 0.0098 | 1199.53 | 1.4206
w2 = 0.0167 | 1196.97 | 1.4194
w2 = 0.0205 | 1195.79 | 1.4191
w2 = 0.029 | 1193.14 | 1.418
w2 = 0.0396 | 1189.89 | 1.4169
w2 = 0.0585 | 1184.23 | 1.4141
w2 = 0.0982 | 1173.48 | 1.4094
w2 = 0.154 | 1159.29 | 1.4033
w2 = 0.2046 | 1147.24 | 1.398
w2 = 0.2517 | 1136.64 | 1.3934
w2 = 0.3043 | 1125.12 | 1.3883
w2 = 0.3966 | 1106.01 | 1.3801
w2 = 0.5061 | 1084.29 | 1.3705
w2 = 0.6986 | 1048.69 | 1.3549
w2 = 0.8897 | 1015.75 | 1.3406

CC(C)O [propan-2-ol]
Details | mass density, [1] [kg/m3] | refractive index, [2]
298.15 K | 780.82 | 1.3751
323.15 K | 758.67 | 1.3604

CC(C)O [propan-2-ol] + CCCCn1cc[n+](C)c1.F[B-](F)(F)F
323.15 K, w1 = 1
Details | mass density [kg/m3] | refractive index
[3] | 758.67 | –
[4] | – | 1.3604

CC(C)O [propan-2-ol] + O
298.15 K
Details | mass density, [3] [kg/m3] | refractive index, [4]
w1 = 0.048 | – | 1.3365
w1 = 0.0915 | 982.05 | –
w1 = 0.0987 | – | 1.3412
w1 = 0.1446 | – | 1.3458
w1 = 0.2009 | – | 1.3502
w1 = 0.2131 | 960.29 | –
w1 = 0.241 | – | 1.3536
w1 = 0.2951 | – | 1.3569
w1 = 0.3299 | 936.93 | –
w1 = 0.3387 | – | 1.3597
w1 = 0.3921 | – | 1.3622
w1 = 0.4412 | – | 1.3645
w1 = 0.4795 | 906.69 | –
w1 = 0.4805 | – | 1.366
w1 = 0.5009 | 901.31 | –
w1 = 0.5386 | – | 1.3681
w1 = 0.618 | 874.45 | –
w1 = 0.6205 | – | 1.3707
w1 = 0.6337 | – | 1.3711
w1 = 0.6782 | – | 1.3722
w1 = 0.684 | 858.73 | –
w1 = 0.7452 | – | 1.3737
w1 = 0.7861 | – | 1.3744
w1 = 0.7874 | 834.01 | –
w1 = 0.8541 | – | 1.3752
w1 = 0.8788 | 811.99 | –
w1 = 0.8959 | – | 1.3756
w1 = 0.8976 | 807.44 | –
w1 = 0.9154 | 803.01 | –
w1 = 0.9311 | 799.05 | –
w1 = 0.9492 | – | 1.3756
w1 = 0.9502 | 794.22 | –
w1 = 0.9752 | 787.71 | –
w1 = 0.9895 | 783.8 | –
w1 = 1 | 780.82 | 1.3751

O [water]
Details | refractive index
[2], 298.15 K | 1.3325

O [water] + CC(C)O
Details | refractive index
[4], 298.15 K, w2 = 0 | 1.3325

O [water] + CCCCn1cc[n+](C)c1.F[B-](F)(F)F
Details | refractive index
[4], 298.15 K, w1 = 1 | 1.3325

Reference: the NIST ThermoML archive (doi:10.1021/je201010s)
